From patent EP1094066A2, “Condensed heterocyclic glutamic acid derivatives as antiproliferative agents” (AGOURON PHARMACEUTICALS, INC., priority 1993, dated 1994)

Test system: L1210 murine leukemia (ATCC CCL 219) cell line
Assay: Cellular growth inhibition, MTT-tetrazolium reduction assay
Assay type: cell-based
Details: Mus musculus, 72 h; L1210 cells, 3 days of continuous exposure
Experimental: Cellular growth in the presence of the compounds according to the present invention was assessed using the L1210 murine leukemia (ATCC CCL 219) cell line. The cell line was maintained in RPMI 1640 medium containing 5% heat-inactivated fetal bovine serum without antibiotics.
Water insoluble derivatives were dissolved in DMSO and diluted to a final concentration of 0.5% solvent in cell cultures.

For `Nc1nc2c(c(=O)[nH]1)SC(CCc1ccc(C(=O)N[C@@H](CCC(=O)O)C(=O)O)cc1)CN2` (stereo partly shown) [(14), 2-[4-[2-(2-Amino-4-oxo-4,6,7,8-tetrahydro-3H-pyrimido[5,4-b][1,4]thiazin-6-yl)-ethyl]benzoylamino)pentanedioic acid], the IC50 was 0.05 µM.
